# Experiments:
# Assay type in all cases: in vivo, human
# [1] = system: Subjects Having Insomnia Disorder; assay: Example 1: subjective wake after sleep onset (sWASO), Sleep Diary
# Source text: As used herein, the term “subjective wake after sleep onset”, abbreviated as “sWASO”, means the sum of estimated minutes of wake during the night after initial sleep onset until the time the subject stopped trying to sleep for the night, operationalized as the time the subject got out of bed for the day. In some embodiments, sWASO is derived from data entered in a subject's Sleep Diary. As used herein, an “improvement of sWASO” means a reduction in sWASO.
# In some embodiments, sleep diaries were used to assess sleep parameters reported by subjects (i.e., subjective assessments) including subjective sleep onset latency (sSOL), subjective sleep efficiency (sSE), subjective WASO (sWASO), and subjective total sleep time (sTST). Subjects were instructed to complete the Sleep Diary developed based on the consensus Sleep Diary as described in Carney et al., “The consensus sleep diary: standardizing prospective sleep self-monitoring,” Sleep 2012; 35(2):287-302. In some embodiments, the Sleep Diary was used to assess the subject's global perception of quality of sleep on the previous night with the following question: “How would you rate the quality of your sleep last night?” Subjects rated the quality of their sleep on a scale from 1 to 9, with 1 being extremely poor and 9 being extremely good. In some embodiments, the Sleep Diary was used to assess subjective ratings of morning sleepiness with the following question: “How alert/sleepy do you feel this morning?” Subjects rated their sleepiness/alertness level on a Likert scale from 1 to 9, with 1 being extremely sleepy and 9 being extremely alert.
# sWASO—subjective wake after sleep onset: sum of estimated minutes of wake during the night after initial sleep onset until the time the subject stopped trying to sleep for the night, operationalized as the time the subject got out of bed for the day.
# (§1) Subjects were randomized in a double-blind manner and received either placebo, 5 mg of lemborexant, or 10 mg of lemborexant (approximately 1:1:1 randomization). All subjects underwent routine safety monitoring through the study, including assessments of treatment-emergent adverse events, 12-lead electrocardiograms, vital signs, weight, and clinical hematology and blood chemistry labs. Suicidality was assessed using the eC-SSRS.
# Treatment period 1 began with the first dose of randomized study medication (placebo, 5 mg of lemborexant, or 10 mg of lemborexant). Subjects completed sleep diaries daily in the morning, within one hour of waketime. The subjects were assessed by a clinician one month, two months, three months, and six months after initiation of Treatment period 1. The following assessments were conducted:
# This study had two key secondary endpoints. The first key secondary endpoint was the mean change from study baseline in subjective sleep efficiency at month 6. The second key secondary endpoint was the mean change from study baseline of subjective wake after sleep onset at month 6.
# [2] = system: Subjects Having Insomnia Disorder; assay: Example 1: treatment-emergent adverse events; conditions: for TEAEs: Safety Analysis Set
# Description: as §1
# Safety endpoints for this study included the safety and tolerability of lemborexant (1) compared to placebo (during treatment period 1) and (2) in subjects exposed to lemborexant for 3, 6, 9, and 12 months.
# [3] = system: Subjects Having Insomnia Disorder; assay: Example 2: duration of long awakenings; conditions: both doses; relative to placebo, compared with zolpidem ER (FIG. 12)
# [4] = system: Subjects Having Insomnia Disorder; assay: Example 3: proportion of sSOL responders (pooled Examples 1 and 2)
# Description: The data collected in studies described in Example 1 and Example 2 were pooled and the response of each subject was analyzed.
# [5] = First 7 Days, Lemborexant 10 mg
compound,measurement,setting,value
"Cc1ncc(OC[C@@]2(c3cccc(F)c3)C[C@H]2C(=O)Nc2ccc(F)cn2)c(C)n1 [Lemborexant, (1R,2S)-2-(((2,4-dimethylpyrimidin-5-yl)oxy)methyl)-2-(3-fluorophenyl)-N-(5-fluoropyridin-2-yl)cyclopropanecarboxamide]",subjective wake after sleep onset compared with placebo,"[1]; 5 mg and 10 mg, at the equivalent timepoint (Table 4)",greater reduction in mean subjective wake after sleep onset than subjects treated with placebo
same,"sWASO, Mean","[1]; 5 mg, First 7 Nights",113.53 min
same,"sWASO, Median","[1]; 5 mg, First 7 Nights",87.86 min
same,"sWASO, Mean","[1]; 5 mg, Month 1",107.07 min
same,"sWASO, Median","[1]; 5 mg, Month 1",85.29 min
same,"sWASO, Mean","[1]; 5 mg, Month 3",89.48 min
same,"sWASO, Median","[1]; 5 mg, Month 3",66.43 min
same,"sWASO, Mean","[1]; 5 mg, Month 6",81.79 min
same,"sWASO, Median","[1]; 5 mg, Month 6",60.00 min
same,"sWASO, Mean","[1]; 5 mg, Study Baseline",132.77 min
same,"sWASO, Median","[1]; 5 mg, Study Baseline",114.71 min
same,"sWASO Change from Study Baseline, Mean","[1]; 5 mg, after 1 Month",-23.42 min
same,"sWASO Change from Study Baseline, Median","[1]; 5 mg, after 1 Month",-19.29 min
same,"sWASO Change from Study Baseline, Mean","[1]; 5 mg, after 3 Months",-42.98 min
same,"sWASO Change from Study Baseline, Median","[1]; 5 mg, after 3 Months",-34.57 min
same,"sWASO Change from Study Baseline, Mean","[1]; 5 mg, after 6 Months",-51.45 min
same,"sWASO Change from Study Baseline, Median","[1]; 5 mg, after 6 Months",-44.02 min
same,"sWASO Change from Study Baseline, Mean","[1]; 5 mg, after 7 Nights",-20.21 min
same,"sWASO Change from Study Baseline, Median","[1]; 5 mg, after 7 Nights",-16.01 min
same,sWASO LSM treatment difference: Lemborexant/Placebo,"[1]; 5 mg, change from Study Baseline after 1 Month",-5.514 min
same,sWASO LSM treatment difference: Lemborexant/Placebo,"[1]; 5 mg, change from Study Baseline after 3 Months",-13.424 min
same,sWASO LSM treatment difference: Lemborexant/Placebo,"[1]; 5 mg, change from Study Baseline after 6 Months",-17.474 min
same,sWASO LSM treatment difference: Lemborexant/Placebo,"[1]; 5 mg, change from Study Baseline after 7 Nights",-14.328 min
same,"sWASO, Mean","[1]; 10 mg, First 7 Nights",113.77 min
same,"sWASO, Median","[1]; 10 mg, First 7 Nights",92.29 min
same,"sWASO, Mean","[1]; 10 mg, Month 1",109.42 min
same,"sWASO, Median","[1]; 10 mg, Month 1",95.00 min
same,"sWASO, Mean","[1]; 10 mg, Month 3",95.66 min
same,"sWASO, Median","[1]; 10 mg, Month 3",70.00 min
same,"sWASO, Mean","[1]; 10 mg, Month 6",86.38 min
same,"sWASO, Median","[1]; 10 mg, Month 6",62.14 min
same,"sWASO, Mean","[1]; 10 mg, Study Baseline",136.83 min
same,"sWASO, Median","[1]; 10 mg, Study Baseline",120.57 min
same,"sWASO Change from Study Baseline, Mean","[1]; 10 mg, after 1 Month",-26.82 min
same,"sWASO Change from Study Baseline, Median","[1]; 10 mg, after 1 Month",-22.29 min
same,"sWASO Change from Study Baseline, Mean","[1]; 10 mg, after 3 Months",-39.42 min
same,"sWASO Change from Study Baseline, Median","[1]; 10 mg, after 3 Months",-36.07 min
same,"sWASO Change from Study Baseline, Mean","[1]; 10 mg, after 6 Months",-48.12 min
same,"sWASO Change from Study Baseline, Median","[1]; 10 mg, after 6 Months",-47.43 min
same,"sWASO Change from Study Baseline, Mean","[1]; 10 mg, after 7 Nights",-23.30 min
same,"sWASO Change from Study Baseline, Median","[1]; 10 mg, after 7 Nights",-20.71 min
same,sWASO LSM treatment difference: Lemborexant/Placebo,"[1]; 10 mg, change from Study Baseline after 1 Month",-7.005 min
same,sWASO LSM treatment difference: Lemborexant/Placebo,"[1]; 10 mg, change from Study Baseline after 3 Months",-10.079 min
same,sWASO LSM treatment difference: Lemborexant/Placebo,"[1]; 10 mg, change from Study Baseline after 6 Months",-12.671 min
same,sWASO LSM treatment difference: Lemborexant/Placebo,"[1]; 10 mg, change from Study Baseline after 7 Nights",-16.720 min
same,Deaths,[2]; 5 mg (N = 314),0 n (%)
same,Other SAEs,[2]; 5 mg (N = 314),7 (2.2) n (%)
same,SAEs: Congenital anomaly/birth defect,[2]; 5 mg (N = 314),0 n (%)
same,SAEs: Important medical events,[2]; 5 mg (N = 314),1 (0.3) n (%)
same,SAEs: Life threatening,[2]; 5 mg (N = 314),0 n (%)
same,SAEs: Persistent or significant disability or incapacity,[2]; 5 mg (N = 314),0 n (%)
same,SAEs: Requires inpatient hospitalization or prolongation of existing hospitalization,[2]; 5 mg (N = 314),6 (1.9) n (%)
same,Serious TEAEs,[2]; 5 mg (N = 314),7 (2.2) n (%)
same,Severe TEAEs,[2]; 5 mg (N = 314),13 (4.1) n (%)
same,TEAEs leading to study dose reduced,[2]; 5 mg (N = 314),0 n (%)
same,TEAEs leading to study drug dose adjustment,[2]; 5 mg (N = 314),25 (8.0) n (%)
same,TEAEs leading to study drug interrupted,[2]; 5 mg (N = 314),13 (4.1) n (%)
same,TEAEs leading to study drug withdrawal,[2]; 5 mg (N = 314),13 (4.1) n (%)
same,Treatment-related TEAEs,[2]; 5 mg (N = 314),78 (24.8) n (%)
same,TEAEs,[2]; 5 mg (N = 314),192 (61.1) n (%)
same,Deaths,[2]; 10 mg (N = 314),0 n (%)
same,Other SAEs,[2]; 10 mg (N = 314),9 (2.9) n (%)
same,SAEs: Congenital anomaly/birth defect,[2]; 10 mg (N = 314),0 n (%)
same,SAEs: Important medical events,[2]; 10 mg (N = 314),0 n (%)
same,SAEs: Life threatening,[2]; 10 mg (N = 314),0 n (%)
same,SAEs: Persistent or significant disability or incapacity,[2]; 10 mg (N = 314),0 n (%)
same,SAEs: Requires inpatient hospitalization or prolongation of existing hospitalization,[2]; 10 mg (N = 314),9 (2.9) n (%)
same,Serious TEAEs,[2]; 10 mg (N = 314),9 (2.9) n (%)
same,Severe TEAEs,[2]; 10 mg (N = 314),8 (2.5) n (%)
same,TEAEs leading to study dose reduced,[2]; 10 mg (N = 314),0 n (%)
same,TEAEs leading to study drug dose adjustment,[2]; 10 mg (N = 314),33 (10.5) n (%)
same,TEAEs leading to study drug interrupted,[2]; 10 mg (N = 314),8 (2.5) n (%)
same,TEAEs leading to study drug withdrawal,[2]; 10 mg (N = 314),26 (8.3) n (%)
same,Treatment-related TEAEs,[2]; 10 mg (N = 314),91 (29.0) n (%)
same,TEAEs,[2]; 10 mg (N = 314),187 (59.6) n (%)
same,safety and tolerability (incidence of adverse events),[2]; Example 1 (Table 11),safe and well-tolerated
same,length of long awakenings,[3],greater reduction in the length of long awakenings than treatment with zolpidem ER
same,"Subjective Sleep Onset Latency Responder, No, (%)","[4]; First 7 Days, Lemborexant 5 mg",(86.3) %
same,"Subjective Sleep Onset Latency Responder, Yes, (%)","[4]; First 7 Days, Lemborexant 5 mg",(12.4) %
same,"Subjective Sleep Onset Latency Responders, Difference of proportion vs. Placebo","[4]; First 7 Days, Lemborexant 5 mg",7.80
same,"Subjective Sleep Onset Latency Responder, No, (%)",[4]; [5],(86.2) %
same,"Subjective Sleep Onset Latency Responder, Yes, (%)",[4]; [5],(12.6) %
same,"Subjective Sleep Onset Latency Responders, Difference of proportion vs. Placebo",[4]; [5],7.80
same,"Subjective Sleep Onset Latency Responder, No, (%)","[4]; Month 1, Lemborexant 5 mg",(76.8) %
same,"Subjective Sleep Onset Latency Responder, Yes, (%)","[4]; Month 1, Lemborexant 5 mg",(18.4) %
same,"Subjective Sleep Onset Latency Responders, Difference of proportion vs. Placebo","[4]; Month 1, Lemborexant 5 mg",8.28
same,"Subjective Sleep Onset Latency Responder, No, (%)","[4]; Month 1, Lemborexant 10 mg",(75.8) %
same,"Subjective Sleep Onset Latency Responder, Yes, (%)","[4]; Month 1, Lemborexant 10 mg",(21.0) %
same,"Subjective Sleep Onset Latency Responders, Difference of proportion vs. Placebo","[4]; Month 1, Lemborexant 10 mg",11.14
same,proportion of sSOL responders compared with placebo,"[4]; both doses, first 7 days and end of month 1, responder: sSOL of 20 or less minutes provided baseline sSOL at least 30 minutes (Table 30)",statistically significantly superior
